{
  "source": "patent US20140148454A1",
  "about": "“SUBSTITUTED AMINO-ACRYLCARBOXAMIDES AS KCNQ2/3 MODULATORS” (GRÜNENTHAL GMBH, priority 2012, published 2014)",
  "key": {"[1]": {"tested_on": "withdrawal reflex of the rat tail (tail flick) to radiant heat beam", "assay": "Low-intensity tail flick test (rat)", "assay_type": "in vivo", "details": "dose 10 mg/kg (dose in brackets), MPE = percentage of maximum possible effect", "protocol": "Method II. Low-Intensity Tail Flick Test (Rat)\nIn the low-intensity tail flick test, the determination of the antinociceptive effect of the compounds according to the invention towards an acute noxious thermal stimulus is carried out by measuring the withdrawal reflex of the rat tail (tail flick) in response to a radiant heat beam (analgesia meter; model 2011 of the company Rhema Labortechnik, Hofheim, Germany) according to the method described by D'Amour and Smith (J. Pharm. Exp. Ther. 72, 74 79 (1941). To this end, the rats were placed in a plexiglas restrainer, and a low-intensity radiant heat beam (48° C.) was focused onto the dorsal surface of the tail root. The stimulus intensity was adjusted to result in a mean pre-drug control withdrawal latency of about 7 s, thus also allowing a supraspinal modulation of the spinally mediated acute nociceptive reflex. […] Before administration of a compound according to the invention, the animals were pre-tested twice in the course of five minutes and the mean of these measurements was calculated as the pre-test mean. The antinociceptive effect was determined at 20, 40 and 60 min after peroral compound administration. The antinociceptive effect was calculated based on the increase in the tail withdrawal latency according to the following formula and is expressed as percentage of the maximum possible effect (MPE [%]): […]"}, "KCNQ2/3 channels": {"target": "T1, KCNQ2/3 channels (Homo sapiens, UniProt O43525+O43526)", "T1 construct": "expressed in transfected cells; host or cells: CHO-K1 cells kept under selection antibiotics", "assay": "Fluorescence assay using a voltage sensitive dye (fluorimetry)", "assay_type": "cell-based", "details": "CHO-K1 cells expressing KCNQ2/3 channels", "protocol": "Method I. Fluorescence Assay Using a Voltage Sensitive Dye (Fluorimetry) […] CHO-K1 cells expressing KCNQ2/3 channels are cultivated adherently at 37° C., 5% CO2 and 95% humidity in cell culture bottles (e.g. 80 cm^2 TC flasks, Nunc) with DMEM-high glucose (Sigma Aldrich, D7777) including 10% FCS (PAN Biotech, e.g. 3302-P270521) or alternatively MEM Alpha Medium (1×, liquid, Invitrogen, #22571), 10% fetal calf serum (FCS) (Invitrogen, #10270-106, heat-inactivated) and the necessary selection antibiotics.\nBefore being sown out for the measurements, the cells are washed with 1×DPBS buffer Ca^2+/Mg^2+-free (e.g. Invitrogen, #14190-094) and detached from the bottom of the culture vessel by using Accutase (PAA Laboratories, #L11-007) (incubation with Accutase for 15 min at 37° C.). The cell number is determined using a CASY™ cell counter (TCC, Scharfe System). Depending on the optimal density for each individual cell line, 20,000-30,000 cells/well/100 μl are seeded onto 96-well Corning™ CeIIBIND™ assay plates (Flat Clear Bottom Black Polystyrene Microplates, #3340). Freshly seeded cells are then left to settle for one hour at room temperature, followed by incubation for 24 hours at 37° C., 5% CO2 and 95% humidity.\nThe voltage-sensitive fluorescent dye from the Membrane Potential Assay Kit (Red™ Bulk format part R8123 for FLIPR, MDS Analytical Technologies™) is prepared by dissolving the contents of one vessel Membrane Potential Assay Kit Red Component A in 200 ml of extracellular buffer (ES buffer, 120 mM NaCl, 1 mM KCl, 10 mM HEPES, 2 mM CaCl2, 2 mM MgCl2, 10 mM glucose; pH 7.4). After removal of the nutrient medium, the cells are washed once with 200 μl of ES buffer, then loaded for 45 min at room temperature in 100 μl of dye solution in the dark.\nFluorescence measurements are carried out in a BMG Labtech FLUOstar™, BMG Labtech NOVOstar™ or BMG Labtech POLARstar™ instrument (525 nm excitation, 560 nm emission, Bottom Read mode). After incubation with the dye, 50 μl of the test substances in the desired concentrations, or 50 μl of ES buffer for control purposes, are applied to the wells of the assay plate and incubated for 30 min at room temperature while being shielded from light. The fluorescence intensity of the dye is then measured for 5 min and the fluorescence value F1 of each well is thus determined at a given, constant time. 15 μl of a KCl solution are then added to each well (final concentration of potassium ions 92 mM). The change in fluorescence intensity is subsequently monitored until all the relevant values have been obtained (mainly 5-30 min). At a given time post KCl application, a fluorescence value F2 is determined, in this case at the time of the fluorescence peak.\nFor calculation, the fluorescence intensity F2 is corrected for the fluorescence intensity F1, and the activity (ΔF/F) of the target compound on the potassium channel is determined as follows:\nIn order to determine whether a substance has agonistic activity, is determined by adding to the well only the buffer solution instead of the test substance, determining the value F1K of the fluorescence intensity, adding the potassium ions as described above, and measuring a value F2K of the fluorescence intensity. F2K and F1K are then calculated as follows: […]\nA substance has an agonistic activity on the potassium channel if it is possible to conclude that a target compound has agonistic activity if Calculations of EC50 and IC50 values are carried out with the aid of ‘Prism v4.0’ software (GraphPad Software™)."}},
  "data": [
    {"smiles": "CCCc1cc(N2CCOCC2)nc(C)c1C(=O)NCc1ccc(Cl)cc1", "note": "[Example 4, N-[(4-Chlorophenyl)-methyl]-2-methyl-6-morpholin-4-yl-4-propyl-pyridine-3-carboxylic acid amide]", "values": [
      {"measurement": "Low intensity tail flick, rat, peroral, MPE (dose)", "setting": "[1]", "result": "42 (10) %"},
      {"measurement": "Emax", "setting": "KCNQ2/3 channels; relative to retigabine = 100%, read-out: Fluorimetry % efficacy (retigabine = 100%)", "result": 187, "unit": "%"},
      {"measurement": "EC50", "setting": "KCNQ2/3 channels; voltage-sensitive dye, read-out: Fluorimetry EC50/IC50", "result": 263, "unit": "nM"}
    ]}
  ]
}
